Results taken from PMC10696740 (BMC Biology, 2023).
“And” between values parts separate entries of the source, which are not always exact repeats. Identical values can stand only once. “Also recorded” adds a separate entry of the source. Like-named read-outs stand apart in the source and are kept apart here.

Columns and labels:
[1] = biological target: PaFtfL (P. anaerobius formate tetrahydrofolate ligase) (Peptostreptococcus anaerobius ATCC 27337); test: crystal structure; sitting drop vapour diffusion at 22 °C, 10 mg/ml protein; three crystal forms: apo, apo crystals soaked with 1 mM ATP, and protein mixed with 1 mM BBR; protomers A/B and C/D form two dimers that assemble into a tetramer
PaFtfL [2] = biological target: T1, PaFtfL (Peptostreptococcus anaerobius, UniProt A0A379CIH2); parameters: species or system P. anaerobius; settings: BLI, wildtype PaFtfL, immobilized BBP, 1:1 binding model
T1 sequence (A0A379CIH2 1-558): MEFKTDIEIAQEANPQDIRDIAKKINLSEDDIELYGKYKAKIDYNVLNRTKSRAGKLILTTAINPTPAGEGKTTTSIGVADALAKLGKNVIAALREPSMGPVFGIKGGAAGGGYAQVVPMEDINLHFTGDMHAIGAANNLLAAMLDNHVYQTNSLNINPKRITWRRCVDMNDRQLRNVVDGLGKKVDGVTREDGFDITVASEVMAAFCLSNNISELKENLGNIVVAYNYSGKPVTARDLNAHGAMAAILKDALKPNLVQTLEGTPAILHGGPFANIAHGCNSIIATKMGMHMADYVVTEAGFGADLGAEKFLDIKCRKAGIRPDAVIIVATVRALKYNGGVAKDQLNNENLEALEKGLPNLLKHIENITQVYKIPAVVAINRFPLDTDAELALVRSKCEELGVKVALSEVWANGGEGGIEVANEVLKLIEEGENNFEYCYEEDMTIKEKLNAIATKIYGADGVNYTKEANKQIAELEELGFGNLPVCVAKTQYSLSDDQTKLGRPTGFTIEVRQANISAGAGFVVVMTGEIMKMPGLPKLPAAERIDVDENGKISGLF
Method: (§1) A streptavidin matrix-coated sensor chip (SA chip) was firstly equilibrated with buffer A (lysis buffer with 0.05% Tween 20) followed with the immobilization BBP (200 μM) on the SA chip. Next, proteins with increasing concentrations (0.23, 0.91, 3.63, 14.50, and 58.00 μM) were passed on to the chip for the measurement of changes in response unit (nm). The program comprises the stabilization of the baseline with the buffer A for 1 min, 6 min incubation of the BBP with the SA chip for immobilization, stabilizing the baseline again for 3 min, association enabling interaction between proteins and compounds for 4 min, and dissociation for 4 min followed by a regeneration step. […] Raw data were pre-processed, analyzed, and fitted using the 1:1 binding model in the manufacturer’s software (9.0, Pall ForteBio Corp, Menlo Park, CA, USA) to generate kinetic parameters.

hsMTHFD1 [3] = biological target: T2, hsMTHFD1 (Homo sapiens, UniProt P11586); settings: BLI, 1:1 binding model
T2 construct: His6 tag with thrombin site of pET28a (inferred) (N); made in house; host or cells: E. coli BL21 (DE3)
Method: as §1

hsMTHFD1L [4] = biological target: T3, hsMTHFD1L (Homo sapiens, UniProt Q6UB35); settings: BLI, 1:1 binding model
Method: as §1

PaFtfL F383A = PaFtfL F383A (Peptostreptococcus anaerobius, UniProt A0A379CIH2, F383A); type: binding, P. anaerobius; settings: BLI
Method: as §1

PaFtfL Y229A/F383A/W411A = type: binding, P. anaerobius; settings: BLI, tri-mutant
Method: as §1

PaFtfL Y229A = type: binding, P. anaerobius; settings: BLI, allosteric site mutant
Method: as §1

[5] = biological target: FtfL from Bacteroides fragilis (Bacteroides fragilis, UniProt Q64U80); test: Inhibition of FtfL enzymatic activity; type: biochemical
Method: (§2) The activities of the FtfL enzymes were measured according to the protocol described previously.
(§3) Then, the reaction was initiated by adding substrates (0.1 mM tetrahydrofolate, 2 mM MgCl2, 0.05 mM ATP, and 8 mM sodium formate).
(§4) The product was detected with a maximum absorbance at 350 nm (ε = 24.9 mM^−1 cm^−1) using FLUOstar OPTIMA (BMG LABTECH, Offenburgh, Germany). The reaction was performed at 30 °C. The control reaction was performed by replacing BBR with DMSO. […] Data analysis was performed in GraphPad Prism 7.0.

[6] = biological target: FtfL from Clostridium ljungdahlii (Clostridium ljungdahlii, UniProt D8GTX8); test: Inhibition of FtfL enzymatic activity; type: biochemical
Method: as §2, §3, §4

[7] = tested on: FtfL from Clostridium sporogenes; test: Inhibition of FtfL enzymatic activity; type: biochemical; settings: ns = no significance, not inhibited by BBR
Method: as §2, §3, §4

[8] = biological target: FtfL from Clostridium symbiosum (Clostridium symbiosum, UniProt E7GR72); test: Inhibition of FtfL enzymatic activity; type: biochemical
Method: as §2, §3, §4

[9] = biological target: FtfL from Lactobacillus plantarum (Lactiplantibacillus plantarum, UniProt Q88W76); test: Inhibition of FtfL enzymatic activity; type: biochemical; settings: 100 nM enzyme
Method: as §2, §3, §4

[10] = biological target: FtfL from Lactococcus lactis (Lactococcus lactis subsp. lactis, UniProt Q9CH07); test: Inhibition of FtfL enzymatic activity; type: biochemical
Method: as §2, §3, §4

[11] = biological target: FtfL from Parabacteroides distasonis (Parabacteroides distasonis, UniProt A6LAR6); test: Inhibition of FtfL enzymatic activity; type: biochemical
Method: as §2, §3, §4

PaFtfL [12] = biological target: T1, PaFtfL; test: Inhibition of FtfL enzymatic activity; type: biochemical; settings: Inhibited by BBR (IC50), FtfL from Peptostreptococcus anaerobius, 20 nM enzyme
Method: as §2, §3, §4

[13] = biological target: FtfL from Fusobacterium nucleatum (Fusobacterium nucleatum, UniProt Q8RHF4); test: Inhibition of FtfL enzymatic activity; type: biochemical
[14] = biological target: FtfL from Clostridioides difficile (Clostridioides difficile, UniProt Q189R2); test: Inhibition of FtfL enzymatic activity; type: biochemical
[15] = biological target: FtfL from Vibrio cholerae (Vibrio cholerae, UniProt Q9KLX7); test: Inhibition of FtfL enzymatic activity; type: biochemical
[16] = biological target: FtfL from Clostridium perfringens (Clostridium perfringens, UniProt Q0TMI3); test: biochemical
hsMTHFD1 [17] = biological target: T2, hsMTHFD1; test: Inhibition of hsMTHFD1 ligase activity; type: biochemical; settings: hsMTHFD1, 0.4 mM BBR
Method: (§5) Then, the reaction was initiated by adding substrates (2 mM tetrahydrofolate, 10 mM MgCl2, 40 mM sodium formate, and 5 mM ATP).
as §4

hsMTHFD1L [18] = biological target: T3, hsMTHFD1L; test: Inhibition of hsMTHFD1L ligase activity; type: biochemical; settings: 0.4 mM BBR
Method: as §5, §4

PaFtfL [19] = biological target: T1, PaFtfL; settings: 40 μM BBR
[20] = tested on: Lactobacillus acidophilus ATCC 4356; test: Effect of BBR on the growth of probiotics; settings: L. acidophilus ATCC 4356
[21] = tested on: Lactobacillus reuteri DSM 17938; test: Effect of BBR on the growth of probiotics; settings: L. reuteri DSM 17938
[22] = tested on: Lactobacillus plantarum DSM 13171; test: Effect of BBR on the growth of probiotics; settings: L. plantarum DSM 13171
[23] = tested on: Lactobacillus fermentum CGMCC 1.1880; test: Effect of BBR on the growth of probiotics; settings: L. fermentum CGMCC 1.1880
[24] = tested on: Lactobacillus bulgaricus BD 15; test: Effect of BBR on the growth of probiotics; settings: L. bulgaricus BD 15
[25] = tested on: Peptostreptococcus anaerobius ATCC 27337; test: Growth inhibition of CRC pathogenic bacteria by BBR; settings: P. anaerobius ATCC 27337; 0.3 mM and 0.6 mM BBR
[26] = tested on: Fusobacterium nucleatum ATCC 10953; test: as above; settings: F. nucleatum ATCC 10953; 0.3 mM and 0.6 mM BBR
[27] = tested on: Clostridium symbiosum ATCC 14940; test: as above; settings: C. symbiosum ATCC 14940; 0.3 mM and 0.6 mM BBR
[28] = tested on: Streptococcus faecalis ATCC 19433; test: as above; settings: S. faecalis ATCC 19433; 0.3 mM and 0.6 mM BBR
[29] = tested on: Lactococcus lactis DSM 20481; test: as above; settings: L. lactis DSM 20481; 0.3 mM and 0.6 mM BBR

T3 sequence (Q6UB35 349-978 limits assumed): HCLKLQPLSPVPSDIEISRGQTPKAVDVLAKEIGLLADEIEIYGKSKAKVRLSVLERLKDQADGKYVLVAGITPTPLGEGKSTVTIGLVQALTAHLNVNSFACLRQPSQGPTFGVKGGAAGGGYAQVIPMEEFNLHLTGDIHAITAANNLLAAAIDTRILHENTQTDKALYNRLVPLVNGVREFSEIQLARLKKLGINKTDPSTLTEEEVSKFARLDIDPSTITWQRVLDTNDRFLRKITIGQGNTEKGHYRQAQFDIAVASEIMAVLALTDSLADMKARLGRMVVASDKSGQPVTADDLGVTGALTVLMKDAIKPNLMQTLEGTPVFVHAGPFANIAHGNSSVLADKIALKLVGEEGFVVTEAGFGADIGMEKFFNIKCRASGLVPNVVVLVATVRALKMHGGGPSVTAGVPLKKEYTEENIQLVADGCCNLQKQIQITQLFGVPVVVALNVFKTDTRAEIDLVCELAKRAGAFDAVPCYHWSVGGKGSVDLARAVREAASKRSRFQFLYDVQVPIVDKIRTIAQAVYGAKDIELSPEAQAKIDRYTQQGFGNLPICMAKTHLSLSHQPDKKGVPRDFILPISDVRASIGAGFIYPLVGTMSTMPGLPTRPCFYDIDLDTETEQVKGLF
T2 sequence (P11586 whole entry): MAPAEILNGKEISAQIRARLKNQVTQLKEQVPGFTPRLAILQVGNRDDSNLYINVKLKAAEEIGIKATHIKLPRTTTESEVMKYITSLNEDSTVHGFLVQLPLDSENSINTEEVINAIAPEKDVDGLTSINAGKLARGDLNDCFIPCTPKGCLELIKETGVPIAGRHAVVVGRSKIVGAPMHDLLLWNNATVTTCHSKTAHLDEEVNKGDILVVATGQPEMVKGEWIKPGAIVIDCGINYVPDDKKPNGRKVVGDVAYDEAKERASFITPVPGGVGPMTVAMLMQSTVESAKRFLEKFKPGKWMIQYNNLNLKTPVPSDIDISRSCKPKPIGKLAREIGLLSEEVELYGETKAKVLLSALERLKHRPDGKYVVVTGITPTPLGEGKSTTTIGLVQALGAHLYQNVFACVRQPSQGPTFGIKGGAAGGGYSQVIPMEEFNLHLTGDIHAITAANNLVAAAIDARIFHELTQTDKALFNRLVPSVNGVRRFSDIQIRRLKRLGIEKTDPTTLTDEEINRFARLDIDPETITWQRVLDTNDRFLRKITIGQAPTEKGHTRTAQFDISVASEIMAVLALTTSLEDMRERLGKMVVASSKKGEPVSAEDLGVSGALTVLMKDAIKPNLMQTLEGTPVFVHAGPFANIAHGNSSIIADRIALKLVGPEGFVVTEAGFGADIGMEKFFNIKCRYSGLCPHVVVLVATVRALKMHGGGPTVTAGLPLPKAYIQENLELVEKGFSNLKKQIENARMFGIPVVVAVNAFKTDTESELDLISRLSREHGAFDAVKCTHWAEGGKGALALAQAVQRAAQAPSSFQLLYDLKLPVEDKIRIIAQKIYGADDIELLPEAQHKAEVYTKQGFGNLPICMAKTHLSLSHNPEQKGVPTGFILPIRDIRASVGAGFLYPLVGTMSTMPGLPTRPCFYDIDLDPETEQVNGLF
Chain of FtfL from Clostridium ljungdahlii (D8GTX8 entry or part of it): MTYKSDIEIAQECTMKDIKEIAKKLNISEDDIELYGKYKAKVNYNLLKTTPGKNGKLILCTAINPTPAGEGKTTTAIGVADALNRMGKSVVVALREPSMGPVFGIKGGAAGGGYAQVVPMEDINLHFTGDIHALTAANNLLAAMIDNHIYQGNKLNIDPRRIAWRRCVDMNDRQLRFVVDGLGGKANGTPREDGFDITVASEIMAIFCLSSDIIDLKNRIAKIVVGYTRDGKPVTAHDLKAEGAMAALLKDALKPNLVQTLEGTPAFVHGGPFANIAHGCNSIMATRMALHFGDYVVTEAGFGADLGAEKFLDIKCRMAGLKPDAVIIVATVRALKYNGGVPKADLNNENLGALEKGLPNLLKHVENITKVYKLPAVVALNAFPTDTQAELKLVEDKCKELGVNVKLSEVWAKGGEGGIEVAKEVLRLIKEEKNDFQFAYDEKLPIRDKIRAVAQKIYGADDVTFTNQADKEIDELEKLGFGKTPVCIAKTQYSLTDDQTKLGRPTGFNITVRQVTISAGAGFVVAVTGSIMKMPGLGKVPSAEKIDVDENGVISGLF
Chain of FtfL from Lactococcus lactis (Q9CH07 whole entry): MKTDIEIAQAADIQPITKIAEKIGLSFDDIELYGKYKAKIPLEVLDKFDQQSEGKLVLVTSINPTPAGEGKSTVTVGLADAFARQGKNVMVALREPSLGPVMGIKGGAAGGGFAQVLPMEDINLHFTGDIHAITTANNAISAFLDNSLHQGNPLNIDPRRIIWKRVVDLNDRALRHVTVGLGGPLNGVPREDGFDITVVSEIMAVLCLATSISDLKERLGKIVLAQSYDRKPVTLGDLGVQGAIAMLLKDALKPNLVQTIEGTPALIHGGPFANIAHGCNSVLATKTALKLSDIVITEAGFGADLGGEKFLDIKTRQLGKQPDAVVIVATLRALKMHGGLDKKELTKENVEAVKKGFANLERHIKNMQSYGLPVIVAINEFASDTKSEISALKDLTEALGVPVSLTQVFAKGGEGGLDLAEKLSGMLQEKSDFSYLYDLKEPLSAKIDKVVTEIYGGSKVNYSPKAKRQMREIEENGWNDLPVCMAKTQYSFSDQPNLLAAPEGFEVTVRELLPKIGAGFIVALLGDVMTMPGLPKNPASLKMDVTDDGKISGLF
Chain of FtfL from Lactobacillus plantarum (Q88W76 whole entry): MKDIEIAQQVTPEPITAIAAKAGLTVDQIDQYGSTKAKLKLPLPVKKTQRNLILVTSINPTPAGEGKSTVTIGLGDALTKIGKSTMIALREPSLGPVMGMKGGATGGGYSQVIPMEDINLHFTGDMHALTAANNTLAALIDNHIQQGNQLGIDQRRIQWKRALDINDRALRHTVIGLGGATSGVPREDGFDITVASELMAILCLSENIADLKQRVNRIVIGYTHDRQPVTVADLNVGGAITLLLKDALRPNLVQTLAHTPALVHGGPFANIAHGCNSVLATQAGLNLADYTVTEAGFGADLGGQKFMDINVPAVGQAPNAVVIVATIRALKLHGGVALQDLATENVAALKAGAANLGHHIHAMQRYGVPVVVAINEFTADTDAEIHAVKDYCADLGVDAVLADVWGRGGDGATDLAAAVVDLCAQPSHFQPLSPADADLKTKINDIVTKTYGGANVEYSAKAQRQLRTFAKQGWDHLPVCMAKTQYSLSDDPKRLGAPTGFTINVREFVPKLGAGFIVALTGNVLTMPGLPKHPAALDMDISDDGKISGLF

Work on “PaFtfL (P. anaerobius formate tetrahydrofolate ligase) (enzyme)” yielded a stoichiometry N [1] of 4.

Compound COc1ccc2cc3[n+](cc2c1OC)CCc1cc2c(cc1-3)OCO2 [BBR, Berberine] has a Kd (PaFtfL [2]) of 0.674 µM, a Kd (hsMTHFD1 [3]) of 2.3 µM and a Kd (hsMTHFD1L [4]) of 0.158 µM. For the same compound, the “reduction of binding affinity versus wildtype PaFtfL” value (PaFtfL F383A; F383A) was 34 fold, the Kd (PaFtfL F383A; active site mutant) was 23.1 µM and the “binding affinity of BBR with PaFtfL Y229A/F383A/W411A” value (PaFtfL Y229A/F383A/W411A) was “non-detectable”. The “binding affinity of BBR with PaFtfL Y229A” value (PaFtfL Y229A) was “The affinity is too weak to fit”, the IC50 [5] was 105 ± 69.8 µM and the IC50 [6] was 83.8 ± 10 µM. The “Inhibited by BBR (IC50)” value [7] was “ns”, the IC50 [8] was 129 ± 17.1 µM and the IC50 [9] was over 200 µM. For the same compound, the IC50 [10] was 118 ± 18.5 µM, the IC50 [11] was over 200 µM and the IC50 (PaFtfL [12]) was 62 µM and 62.3 µM. For the same compound, the IC50 [13] was 106 ± 27 µM, the IC50 [14] was 158 ± 68.7 µM and the IC50 [15] was 130 ± 12.3 µM. The IC50 [16] was 105 ± 3.15 µM, the “decrease of ligase enzyme activity” value (hsMTHFD1 [17]) was 58% and the “decrease of ligase enzyme activity” value (hsMTHFD1L [18]) was 36%. The “apparent Kcat of PaFtfL” value (PaFtfL [19]; substrate ATP) was 16.7 ± 0.83 s⁻¹, the “apparent Vmax of PaFtfL” value (PaFtfL [19]; substrate ATP) was 0.010 ± 0.0005 mM/min and the “apparent Kcat of PaFtfL” value (PaFtfL [19]; substrate THF) was 78.3 ± 6.7 s⁻¹. The “apparent Vmax of PaFtfL” value (PaFtfL [19]; substrate THF) was 0.047 ± 0.004 mM/min, the “effect on bacterial growth” value [20] was “promotes growth” and the “effect on bacterial growth” value [21] was “little effect”. For the same compound, the “effect on bacterial growth” value [22] was “little effect”, the “effect on bacterial growth” value [23] was “little effect” and the “effect on bacterial growth” value [24] was “inhibits growth”. For the same compound, the “effect on bacterial growth” value [25] was “dose-dependent inhibition; also recorded: inhibits the growth”, the “effect on bacterial growth” value [26] was “dose-dependent inhibition; also recorded: inhibits the growth” and the “effect on bacterial growth” value [27] was “dose-dependent inhibition; also recorded: inhibits the growth”. The “effect on bacterial growth” value [28] was “dose-dependent inhibition; also recorded: inhibits the growth” and the “effect on bacterial growth” value [29] was “dose-dependent inhibition; also recorded: inhibits the growth”.
